According to patent US20210380595A1 (ARAXES PHARMA LLC, priority 2018, published 2021):

What follows are compounds tested against T1, KRAS G12C 1-169, his-tagged protein, GDP-loaded (Homo sapiens, UniProt P01116, G12C) (assay: Biochemical assay: covalent modification of KRAS G12C measured by mass spectrometry (RapidFire/TOF or Q-Exactive)). Details: tested at 32 μM.
T1 construct: KRAS G12C 1-169, his-tagged protein, GDP-loaded
Type: binding
Procedure: Test compounds were prepared as 10 mM stock solutions in DMSO (Fisher cat. #BP-231-100). KRAS G12C 1-169, his-tagged protein, GDP-loaded is diluted to 2 μM or 0.5 μM in buffer (20 mM Hepes, 150 mM NaCl, 1 mM MgCl2). Compounds were tested for activity as follows:
Compounds were diluted to 50× final test concentration in DMSO in 96-well storage plates. Compound stock solutions were vortexed before use and observed cwerefully for any sign of precipitation. Dilutions were as follow: • For 32 μM final compound concentration, compounds were diluted to 1600 μM (3 μL 10 mM compound stock +15.75 μL DMSO and mixed well by pipetting. • For 8 μM final compound concentration, compounds were diluted to 400 μM (2 μL 10 mM compound stock +48 μL DMSO) and mixed well by pipetting. 49 μL of the stock protein solution was added to each well of a 96-well PCR plate (Fisher cat#1423027). 1 μl of the diluted 50× compounds were added to appropriate wells in the PCR plate using 12-channel pipettor. Reactions were mixed carefully and thoroughly by pipetting up/down with a 200 μL multi-channel pipettor. The plate was sealed well with aluminum plate seal, and protein and compound were allowed to react for a desired amount of time. 5 μL of 2% formic acid (Fisher cat#A117) in de-ionized H2O was then added to each well followed by mixing with a pipette to quench the reaction. The plate was then resealed with aluminum seal and stored frozen on dry ice until analyzed as described below.
The above described assays were analyzed by mass spectrometry according to one of the following two procedures:
The MS instrument was set to positive polarity, 2 GHz resolution, and low mass (1700) mode and allowed to equilibrate for 30 minutes. The instrument was then calibrated, switched to acquisition mode and the appropriate method loaded.
After another 30 minute equilibration time, a blank batch (i.e., buffer) was run to ensure equipment is operating properly. The samples were thawed at 37° C. for 10 minutes, briefly centrifuged, and transfered to the bench top. Wells A1 and H12 were spiked with 1 μL 500 μM internal standard peptide, and the plates centrifuged at 2000×g for 5 minutes. The method was then run and masses of each individual well recorded.
The masses (for which integration data is desired) for each well were pasted into the platemap and exported from the analysis. Masses for the internal standards were exported as well. The data at 50 ppm was extracted for the +19 charge state, and identity of well A1 was assigned using the internal standard spike and integrated. Peak data was exported as a TOF list and the above steps were repeated individually, for the +20, +21, +22, +23, +24, and +25 charge states.
The masses and peak intensities of KRAS G12C protein species were measured using a Dionex RSLCnano system (Thermo Scientific) connected to a Q Exactive Plus mass spectrometer (Thermo Scientific).
20 μL of sample was loaded onto a Aeris™ 3.6 μm WIDEPORE C4 200 Å, LC Column 50×2.1 mm column maintained at 40° C. at a flow rate of 600 μL/min with 80% Solvent A (0.1% formic acid in H2O) and 20% Solvent B (0.1% formic acid in acetonitrile). The liquid chromatography conditions were 20% solvent B for 1 minute, 20% to 60% solvent B for 1.5 minutes, 60% to 90% solvent for 0.5 minute, 90% solvent B for 0.2 minute, 90% to 20% solvent B for 0.2 minute, and then equilibrated for 1.6 minute before the following sample injection. The flow rate was maintained at 600 μL/min throughout the sample analysis.
The mass spectrometer was operated in profile mode at a resolution of 17500, 5 microscans, using 50 msec max injection time and an AGC target of 1×10^6, and a full mass range from 800-1850 m/z was recorded. The intact protein mode was applied for optimal ion transfer and maximum sensitivity. The ionization method was electrospray ionization, which used a spray voltage of 4 kV, sheath gas flow set to 50 AU, auxiliary gas flow set to 10 AU and sweep gas flow set to 1 AU. […]

| SMILES | Bind % |
| --- | --- |
| C=CC(=O)N1CC2(CCN(c3cc(N4CCC5(CCN(C)C5)C4)cc(-c4c(C)ccc5[nH]ncc45)c3C#N)C2)C1 (stereo not shown) [Compound I-41, 2-(2-acryloyl-2,6-diazaspiro[3.4]octan-6-yl)-6-(5-methyl-1H-indazol-4-yl)-4-(7-methyl-2,7-diazaspiro[4.4]nonan-2-yl)benzonitrile] | +++ (+++ indicates binding activity greater than 75%) |
| Cc1ccc2[nH]ncc2c1-c1c(F)ccc(N2CCC3(CN(C(=O)/C=C/CN(C)C)C3)C2)c1C#N [Compound I-46, (E)-6-(2-(4-(dimethylamino)but-2-enoyl)-2,6-diazaspiro[3.4]octan-6-yl)-3-fluoro-2-(5-methyl-1H-indazol-4-yl)benzonitrile] | + (+ indicates binding activity greater than 0% and up to 50%) |
| Cc1ccc2cnn(C)c2c1-c1c(F)ccc(N2CCC3(CN(C(=O)/C=C/CN(C)C)C3)C2)c1C#N [Compound I-47, (E)-2-(1,6-dimethyl-1H-indazol-7-yl)-6-(2-(4-(dimethylamino)but-2-enoyl)-2,6-diazaspiro[3.4]octan-6-yl)-3-fluorobenzo-nitrile] | + (+ indicates binding activity greater than 0% and up to 50%) |
| C=CC(=O)N1CCC2(C1)CN(c1cc(OCc3ccccn3)cc(-c3c(C)ccc4[nH]ncc34)c1C#N)C2 [Compound I-48, 2-(6-acryloyl-2,6-diazaspiro[3.4]octan-2-yl)-6-(5-methyl-1H-indazol-4-yl)-4-(pyridin-2-ylmethoxy) benzonitrile] | + (+ indicates binding activity greater than 0% and up to 50%) |
| CC#CC(=O)N1CCC2(C1)CN(c1cc(OCc3ccccn3)cc(-c3c(C)ccc4[nH]ncc34)c1C#N)C2 [Compound I-49, 2-(6-(but-2-ynoyl)-2,6-diazaspiro[3.4]octan-2-yl)-6-(5-methyl-1H-indazol-4-yl)-4-(pyridin-2-ylmethoxy) benzonitrile] | + (+ indicates binding activity greater than 0% and up to 50%) |
| CC#CC(=O)N1CC2(CCN(c3cc(OCc4ccccn4)cc(-c4c(C)ccc5[nH]ncc45)c3C#N)CC2)C1 [Compound I-51, 2-(2-(but-2-ynoyl)-2,7-diazaspiro[3.5]nonan-7-yl)-6-(5-methyl-1H-indazol-4-yl)-4-(pyridin-2-ylmethoxy) benzonitrile] | + (+ indicates binding activity greater than 0% and up to 50%) |
| C=CC(=O)N1CCC2(CCN(c3cc(OCc4ccccn4)cc(-c4c(C)ccc5[nH]ncc45)c3C#N)CC2)C1 [Compound I-52, 2-(2-acryloyl-2,8-diazaspiro[4.5]decan-8-yl)-6-(5-methyl-1H-indazol-4-yl)-4-(pyridin-2-ylmethoxy) benzonitrile] | + (+ indicates binding activity greater than 0% and up to 50%) |
| CC#CC(=O)N1CCC2(CCN(c3cc(OCc4ccccn4)cc(-c4c(C)ccc5[nH]ncc45)c3C#N)CC2)C1 [Compound I-53, 2-(2-(but-2-ynoyl)-2,8-diazaspiro[4.5]decan-8-yl)-6-(5-methyl-1H-indazol-4-yl)-4-(pyridin-2-ylmethoxy) benzonitrile] | + (+ indicates binding activity greater than 0% and up to 50%) |
| Cc1ccc2cnn(C)c2c1-c1cc(OCc2ccccn2)cc(N2CCC3(CN(C(=O)/C=C/CN(C)C)C3)C2)c1C#N [Compound I-54, (E)-2-(1,6-dimethyl-1H-indazol-7-yl)-6-(2-(4-(dimethylamino)but-2-enoyl)-2,6-diazaspiro[3.4]octan-6-yl)-4-(pyridin-2-ylmethoxy) benzonitrile] | +++ (+++ indicates binding activity greater than 75%) |
| CC#CC(=O)N1CCC2(CCN(c3cc(OCc4ccccn4)cc(-c4c(C)ccc5[nH]ncc45)c3C#N)C2)C1 (stereo not shown) [Compound I-56, 2-(7-(but-2-ynoyl)-2,7-diazaspiro[4.4]nonan-2-yl)-6-(5-methyl-1H-indazol-4-yl)-4-(pyridin-2-ylmethoxy) benzonitrile] | + (+ indicates binding activity greater than 0% and up to 50%) |
| C=CC(=O)N1CC2(CCN(c3ccc(OCCCN(C)C)c(-c4c(C)ccc5[nH]ncc45)c3C#N)C2)C1 [Compound I-57, 6-(2-acryloyl-2,6-diazaspiro[3.4]octan-6-yl)-3-(3-(dimethylamino)propoxy)-2-(5-methyl-1H-indazol-4-yl)benzonitrile] | + (+ indicates binding activity greater than 0% and up to 50%) |
| C=CC(=O)N1CCC2(CC1)CCN(c1cc(OCc3ccccn3)cc(-c3c(C)ccc4[nH]ncc34)c1C#N)C2 [Compound I-58, 2-(8-acryloyl-2,8-diazaspiro[4.5]decan-2-yl)-6-(5-methyl-1H-indazol-4-yl)-4-(pyridin-2-ylmethoxy) benzonitrile] | + (+ indicates binding activity greater than 0% and up to 50%) |
| CC#CC(=O)N1CCC2(CC1)CCN(c1cc(OCc3ccccn3)cc(-c3c(C)ccc4[nH]ncc34)c1C#N)C2 [Compound I-59, 2-(8-(but-2-ynoyl)-2,8-diazaspiro[4.5]decan-2-yl)-6-(5-methyl-1H-indazol-4-yl)-4-(pyridin-2-ylmethoxy) benzonitrile] | + (+ indicates binding activity greater than 0% and up to 50%) |
| C=CC(=O)N1CCC2(CCN(c3cc(OCc4ccccn4)cc(-c4c(C)ccc5[nH]ncc45)c3C#N)C2)C1 (stereo not shown) [Compound I-61, 2-(7-acryloyl-2,7-diazaspiro[4.4]nonan-2-yl)-6-(5-methyl-1H-indazol-4-yl)-4-(pyridin-2-ylmethoxy) benzonitrile] | + (+ indicates binding activity greater than 0% and up to 50%) |

Same assay, conditions: tested at a concentration of 8 μM

| SMILES | Bind % |
| --- | --- |
| C=CC(=O)N1CC2(CCN(c3cc(N4CCC(N5CCN(C)[C@H](C)C5)CC4)cc(-c4c(C)ccc5[nH]ncc45)c3C#N)C2)C1 [Compound I-38, 2-(2-acryloyl-2,6-diazaspiro[3.4]octan-6-yl)-4-(4-((R)-3,4-dimethyl-piperazin-1-yl)piperidin-1-yl)-6-(5-methyl-1H-indazol-4-yl)benzonitrile] | +++ (+++ indicates binding activity greater than 75%) |
| C=CC(=O)N1CC2(CCN(c3cc(N4CCC(N5CCN(C)CC5)CC4)cc(-c4c(C)ccc5[nH]ncc45)c3C#N)C2)C1 [Compound I-39, 2-(2-acryloyl-2,6-diazaspiro[3.4]octan-6-yl)-6-(5-methyl-1H-indazol-4-yl)-4-(4-(4-methylpiperazin-1-yl)piperidin-1-yl)benzonitrile] | +++ (+++ indicates binding activity greater than 75%) |
| C=CC(=O)N1CC2(CCN(c3cc(OC[C@@H]4CCCN4C)cc(-c4c(C)ccc5cnn(C)c45)c3C#N)C2)C1 [Compound I-40, 2-(2-acryloyl-2,6-diazaspiro[3.4]octan-6-yl)-6-(1,6-dimethyl-1H-indazol-7-yl)-4-(((S)-1-methylpyrrolidin-2-yl)methoxy) benzonitrile] | +++ (+++ indicates binding activity greater than 75%) |
| C=CC(=O)N1CC2(CCN(c3cc(OCc4ccccn4)cc(-c4c(C)ccc5[nH]ncc45)c3C#N)CC2)C1 [Compound I-50, 2-(2-acryloyl-2,7-diazaspiro[3.5]nonan-7-yl)-6-(5-methyl-1H-indazol-4-yl)-4-(pyridin-2-ylmethoxy) benzonitrile] | + (+ indicates binding activity greater than 0% and up to 50%) |
| Cc1ccc2[nH]ncc2c1-c1cc(OCc2ccccn2)cc(N2CCC3(CN(C(=O)/C=C/CN(C)C)C3)C2)c1C#N [Compound I-60, (E)-2-(2-(4-(dimethylamino)but-2-enoyl)-2,6-diazaspiro[3.4]octan-6-yl)-6-(5-methyl-1H-indazol-4-yl)-4-(pyridin-2-ylmethoxy) benzonitrile] | + (+ indicates binding activity greater than 0% and up to 50%) |
